Laboratory results as given in patent US20250332112A1, “IONIZABLE CATIONIC LIPIDS FOR LIPID NANOPARTICLES” (GENEVANT SCIENCES GMBH, priority 2022, published 2025).

Tests used:
[1] = cited from earlier work
[2] = system: human OTC expression in the liver; test: Dose response of human OTC mRNA LNP, OTC expression in liver (ELISA); assay type: in vivo; settings: 24 h, male C57BL/6 mice (n = 4)
Experimental: (§1) LNP formulations encapsulating ornithine transcarbamylase mRNA were injected intravenously at the specified dose levels to male C57BL/6 mice (6-8 weeks old).
Liver homogenates were prepared with PBS, Halt protease inhibitor cocktail and FastPrep homogenization, standardized to 2 mg/mL protein with a BCA Protein Assay, and then analyzed by ELISA. Briefly, samples were diluted with PBS and plated on Nunc Maxisorp plates. A standard curve using human […] protein was prepared from the naïve animal controls (vehicle). After 2 h incubation the plates were washed, and the primary antibody was added. After 1 h incubation, the secondary antibody was added and incubated for another hour. After washing, TMB Substrate was added for color development and the reaction was stopped with 2 N sulfuric acid. The plate was read at 450/570 OD.
At 24 h post-dose, the novel lipid formulations reported dose-dependent increases in human OTC expression in the liver (Table 15).

[3] = Particle characteristics of LNPs containing luciferase mRNA and novel ionizable lipids; assay type: physicochemical; settings: Table 6; luciferase mRNA LNP 1.6:54.6:32.8:10.9
Method in brief: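 LNPs made from PEG-lipid, ionizable lipid, cholesterol and phospholipid in ethanol, T-mixed with luciferase mRNA in 100 mM acetate pH 5. Products were dialysed, concentrated, and dialysed into 5 mM Tris, 10% sucrose, pH 8, then 0.2 μm filtered. mRNA was measured by RiboGreen, and size and polydispersity by dynamic light scattering on a Zetasizer.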

[4] = Lipid clearance from liver over time after human OTC mRNA LNP (LC-MS); assay type: in vivo; settings: IV 0.5 mg/kg human OTC mRNA LNP, male C57BL/6 mice (n = 4)
Experimental: as §1
(§2) Liver tissues were treated with PBS and homogenized with a FastPrep machine, 3 cycles of 5 m/s×15 s. Homogenates from the PBS-treated control animals was pooled and used for standard curve preparation. Samples were extracted into a deep well plate with 250 μL of an internal suitability standard. Plates were centrifuged for 15 min at 4° C. and 2000 rpm. Analysis was performed using an Agilent 6520 QTOF coupled to an Agilent 1290 UHPLC, using reverse-phase LC separation. Quantitation of the ionizable lipid was by MS/MS against a calibration curve spiked into appropriately matched blank matrix. Calibration used a similar class of synthetic lipid as internal standard.
At various timepoints post-dose, lipid levels were assessed in the liver. Some novel ionizable lipids reported more rapid clearance rates compared to the benchmark (Table 19).

[5] = Parent ionizable lipid remaining in liver at 6 h after luciferase mRNA LNP (LC-MS); assay type: in vivo; settings: 6 h after IV 0.5 mg/kg Luciferase mRNA LNP
[6] = system: luciferase activity in the liver; test: Luciferase activity in liver after intravenous luciferase mRNA LNP; assay type: in vivo; settings: Table 13; 0.5 mg/kg IV, 6 h post-IV administration, BALB/c mice (n = 4)
[7] = system: EGFP expression in the liver; test: EGFP expression in liver after intravenous EGFP mRNA LNP (ELISA); settings: 0.5 mg/kg IV, 24 h post-IV administration, BALB/c mice (n = 4)
Experimental: LNP formulations encapsulating enhanced green fluorescent protein mRNA were injected intravenously at 0.5 mg/kg to female BALB/c mice (6-8 weeks old). On day of injection, the LNP stocks were filtered and diluted to the required dosing concentration with phosphate buffered saline. At 24 hours post-administration, animals were anaesthetized with a lethal dosage of ketamine/xylazine. Liver samples (left lateral lobe) were collected, weighed, and flash frozen in liquid nitrogen. Liver samples were stored in FastPrep® tubes at −80° C. until analyzed for EGFP expression.
Liver homogenates were prepared in cell extraction buffer, diluted, and analyzed for EGFP protein levels using ELISA, according to manufacturer's instructions (Abcam, GFP ELISA Kit).

[8] = Particle characteristics of LNPs containing EGFP mRNA and novel ionizable lipids; assay type: physicochemical; settings: EGFP mRNA LNP 1.6:54.6:32.8:10.9
Method in brief: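 LNPs of PEG-lipid, ionizable lipid, cholesterol and phospholipid in ethanol were mixed 1:1 with mRNA in 100 mM acetate pH 5 via T-junction, diluted in PBS, dialysed, concentrated to ~0.6 mg/mL and exchanged into 5 mM Tris, 10% sucrose, pH 8. Size and polydispersity by Zetasizer; nucleic acid by RiboGreen.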

[9] = Parent ionizable lipid remaining in liver at 24 h after EGFP mRNA LNP (LC-MS); assay type: in vivo; settings: 24 h after IV 0.5 mg/kg EGFP mRNA LNP, female BALB/c mice (n = 4)
[10] = system: EGFP expression in the liver; test: Dose response of EGFP mRNA LNP, EGFP expression in liver; assay type: in vivo; settings: 24 h, female BALB/c mice (n = 4)
Experimental: At 24 h post-dose, the novel lipid formulations reported dose-dependent increases in EGFP expression in the liver (Table 32).

[11] = Lipid clearance from liver over time after EGFP mRNA LNP (LC-MS); assay type: in vivo; settings: IV 0.5 mg/kg EGFP mRNA LNP, female BALB/c mice (n = 4)
Experimental: as §2
At various timepoints post-dose, lipid levels were assessed in the liver. Some novel ionizable lipids reported more rapid clearance rates compared to the benchmark (Table 33).

[12] = Table 18, female BALB/c mice (n = 4)

## CCCCCCCCC(CCCCCC)C(=O)OCCCCCCN(CCCCO)CCCCCCOC(=O)C(CCCCCC)CCCCCCCC (stereo not drawn) [ALC-0315]
[1]; ref: Comirnaty Assessment Report, European Medicines Agency
  Rate of metabolism (in words): metabolize at a similar rate to MC3

## CCCCCCCCCCN(C(=O)CCCN(C)C)C(CCCCCCCCC)CCCCCCC(F)(F)C(=O)OCCC(CCCCCC)CCCCCC (stereo not drawn) [Compound 16, 3-hexylnonyl 9-(N-decyl-4-(dimethylamino)butanamido)-2,2-difluorooctadecanoate]
[2]; 0.3 mg/kg IV
  Human OTC expression: 1155 ng hOTC/mg protein in liver
[2]; 1 mg/kg IV
  Human OTC expression: 4127 ng hOTC/mg protein in liver
[2]; 3 mg/kg IV
  Human OTC expression: 10316 ng hOTC/mg protein in liver
[3]
  Final Product % EE: 95%
  Final Product PDI: 0.10
  Final Product Z-avg: 76 nm
[4]; 0.25 h post-dose
  Parent ionizable lipid remaining in liver, Average: 11.11 nmol/g liver
[4]; 1 h post-dose
  Parent ionizable lipid remaining in liver, Average: 15.47 nmol/g liver
[4]; 3 h post-dose
  Parent ionizable lipid remaining in liver, Average: 10.91 nmol/g liver
[4]; 6 h post-dose
  Parent ionizable lipid remaining in liver, Average: 4.71 nmol/g liver
[4]; 24 h post-dose
  Parent ionizable lipid remaining in liver, Average: 1.33 nmol/g liver
[4]; 168 h post-dose
  Parent ionizable lipid remaining in liver, Average: 0.04 nmol/g liver
[5]; Table 17, female mice (n = 4)
  Parent ionizable lipid remaining in liver, Average: 6.32 nmol/g liver
[5]; [12]
  Parent ionizable lipid remaining in liver, Average: 17.06 nmol/g liver
[6]
  Luc Activity: 4.39E+07 pg/g liver

## CCCCCCCCCCC(CCCCCCC(=O)OCC(CCCCCC)CCCCCCCC)N(CCCCCCC(F)(F)C(=O)OCC(CCCCCC)CCCCCCCC)C(=O)CCCN(C)C (stereo not drawn) [Compound 33]
[2]; 0.3 mg/kg IV
  Human OTC expression: 660 ng hOTC/mg protein in liver
[2]; 1 mg/kg IV
  Human OTC expression: 2954 ng hOTC/mg protein in liver
[2]; 3 mg/kg IV
  Human OTC expression: 11080 ng hOTC/mg protein in liver
[4]; 0.25 h post-dose
  Parent ionizable lipid remaining in liver, Average: 33.97 nmol/g liver
[4]; 1 h post-dose
  Parent ionizable lipid remaining in liver, Average: 98.57 nmol/g liver
[4]; 3 h post-dose
  Parent ionizable lipid remaining in liver, Average: 76.20 nmol/g liver
[4]; 6 h post-dose
  Parent ionizable lipid remaining in liver, Average: 86.57 nmol/g liver
[4]; 24 h post-dose
  Parent ionizable lipid remaining in liver, Average: 58.68 nmol/g liver
[4]; 168 h post-dose
  Parent ionizable lipid remaining in liver, Average: 6.22 nmol/g liver

## CCCCCCCCCCON(C(=O)CCCN(C)C)C(CCCCCCCCCC)CCCCCCC(=O)OCCC(CCCCC)CCCCC (stereo not drawn) [Compound 43, 3-pentyloctyl 8-[N-(decyloxy)-4-(dimethylamino)butanamido]octadecanoate]
[2]; 0.3 mg/kg IV
  Human OTC expression: 1247 ng hOTC/mg protein in liver
[2]; 1 mg/kg IV
  Human OTC expression: 5713 ng hOTC/mg protein in liver
[2]; 3 mg/kg IV
  Human OTC expression: 12887 ng hOTC/mg protein in liver
[3]
  Final Product % EE: 99%
  Final Product PDI: 0.05
  Final Product Z-avg: 73 nm
[4]; 0.25 h post-dose
  Parent ionizable lipid remaining in liver, Average: 22.97 nmol/g liver
[4]; 1 h post-dose
  Parent ionizable lipid remaining in liver, Average: 38.91 nmol/g liver
[4]; 3 h post-dose
  Parent ionizable lipid remaining in liver, Average: 28.99 nmol/g liver
[4]; 6 h post-dose
  Parent ionizable lipid remaining in liver, Average: 24.19 nmol/g liver
[4]; 24 h post-dose
  Parent ionizable lipid remaining in liver, Average: 13.50 nmol/g liver
[4]; 168 h post-dose
  Parent ionizable lipid remaining in liver, Average: 0.19 nmol/g liver
[5]; Table 17, female mice (n = 4)
  Parent ionizable lipid remaining in liver, Average: 25.97 nmol/g liver
[5]; [12]
  Parent ionizable lipid remaining in liver, Average: 23.83 nmol/g liver
[6]
  Luc Activity: 1.04E+08 pg/g liver

## CCCCCCCCCCN(C(=O)CCCN(C)C)C(CCCCCCCCC)CCCCC(F)(F)C(=O)OC(CCCCCCC)CCCCCCC (stereo not drawn) [Compound 101, Pentadecan-8-yl 7-(N-decyl-4-(dimethylamino)butanamido)-2,2-difluorohexadecanoate]
[7]; Table 25
  EGFP: 2.25E+05 pg/g liver
[8]; Table 21
  Final Product % EE: 100%
  Final Product PDI: 0.10
  Final Product Z-avg: 70 nm
[9]; Table 29
  Parent ionizable lipid remaining in liver, Average: 16.30 nmol/g liver
[10]; 0.3 mg/kg IV
  EGFP expression: 2.65e+07 pg EGFP/g liver
[10]; 1 mg/kg IV
  EGFP expression: 1.04e+08 pg EGFP/g liver
[10]; 3 mg/kg IV
  EGFP expression: 3.9e+08 pg EGFP/g liver
[11]; 0.25 h post-dose
  Parent ionizable lipid remaining in liver, Average: 23.8 nmol/g liver
[11]; 1 h post-dose
  Parent ionizable lipid remaining in liver, Average: 42.4 nmol/g liver
[11]; 3 h post-dose
  Parent ionizable lipid remaining in liver, Average: 26.9 nmol/g liver
[11]; 6 h post-dose
  Parent ionizable lipid remaining in liver, Average: 30.6 nmol/g liver
[11]; 24 h post-dose
  Parent ionizable lipid remaining in liver, Average: 12.6 nmol/g liver
[11]; 168 h post-dose
  Parent ionizable lipid remaining in liver, Average: 0.6 nmol/g liver

## CCCCCCCCCCN(C(=O)CCCN(C)C)C(CCCCCCCCC)CCCCCCC(F)C(=O)OC(CCCCCCCC)CCCCCCCC (stereo not drawn) [Compound 115, Heptadecan-9-yl 9-(N-decyl-4-(dimethylamino)butanamido)-2-fluorooctadecanoate]
[7]; Table 26
  EGFP: 6.06E+07 pg/g liver
[8]; Table 22
  Final Product % EE: 98%
  Final Product PDI: 0.04
  Final Product Z-avg: 72 nm
[9]; Table 30
  Parent ionizable lipid remaining in liver, Average: 27.15 nmol/g liver
[10]; 0.3 mg/kg IV
  EGFP expression: 2.98e+07 pg EGFP/g liver
[10]; 1 mg/kg IV
  EGFP expression: 1.31e+08 pg EGFP/g liver
[10]; 3 mg/kg IV
  EGFP expression: 3.41e+08 pg EGFP/g liver
[11]; 0.25 h post-dose
  Parent ionizable lipid remaining in liver, Average: 36.7 nmol/g liver
[11]; 1 h post-dose
  Parent ionizable lipid remaining in liver, Average: 51.3 nmol/g liver
[11]; 3 h post-dose
  Parent ionizable lipid remaining in liver, Average: 44.8 nmol/g liver
[11]; 6 h post-dose
  Parent ionizable lipid remaining in liver, Average: 45.3 nmol/g liver
[11]; 24 h post-dose
  Parent ionizable lipid remaining in liver, Average: 0.0 nmol/g liver
[11]; 168 h post-dose
  Parent ionizable lipid remaining in liver, Average: 1.3 nmol/g liver

## CCCCC/C=C\C/C=C\CCCCCCCCC(CCCCCCCC/C=C\C/C=C\CCCCC)OC(=O)CCCN(C)C [MC3]
[1]; in vivo
  Clearance from target tissues (in words): take several weeks to clear from target tissues
